Reference: article PMC9114799, “In vitro Evaluation of Isoniazid Derivatives as Potential Agents Against Drug-Resistant Tuberculosis” (Frontiers in Pharmacology, 2022)
In brackets after ≈: the same amount, converted by molar mass. Several values for one entry are separate records, joined by “and”; a condition that tells them apart may be missing. Identical values can stand only once. Like-named read-outs stand apart in the source and are kept apart here. Marks after values point to notes of the source that are not given here.

What was measured:
HepG2 cells = assay: HepG2 cell viability assay (MTT), 72 h; assay type: cell-based, human; settings: for IC50: Homo sapiens, HepG2, 72 h incubation, MTT, 0.5% DMSO, read-out: IC50 against HepG2 cells
Procedure: HepG2 cells were plated on 384-well tissue culture treated polystyrene plates at 2000 cells in 25 μl of HepG2 maintenance medium per well. After an overnight incubation at 37°C, the cells were dosed with test compounds in dimethyl sulfoxide (DMSO) and controls over wide ranges of concentrations (Table 1) and incubated for 72 h at 37°C. DMSO was at 0.5% in the final solution. The aqueous solubility of the compounds limited the range of concentrations tested. Cell viability was measured using the Promega CellTiter 96 Non-Radioactive Cell Proliferation Assay (MTT) kit by adding the Dye Solution to each well and incubating for 3 h at 37°C. After incubation, the Solubilization Solution/Stop Mix was added to each well. Plates were incubated at 37°C for 1 h, mixed on a plate shaker for 10 min and then absorbance was read at 570 nm. Cell viability was determined by comparison against control cells in the presence of DMSO only and was measured in three independent replicates for each compound concentration. The IC50 was calculated with GraphPad Prism using a Sigmoidal Dose-response (variable slope) algorithm. Chlorpromazine, a drug with a well-known and characterized hepatotoxicity ([Frötschl et al., 2005]; [Gandhi et al., 2013]; [Morgan et al., 2019]), was used as the positive control.
To evaluate the in vitro toxicity of this series of INH derivatives, the viability of HepG2 cells, a human liver cancer cell line, was determined by the MTT tetrazolium reduction assay ([Riss et al., 2013]), a colorimetric assay to assess cell metabolic activity, and the IC50 value, i.e., the concentration for 50% reduction in cell viability, was obtained for each compound (Supplementary Figure S6). […] The hepatoxicity of INH is well described ([Girling, 1978]; [Wu and Cederbaum, 1996]; [Huang et al., 2003]; [Bhadauria et al., 2007]; [Singh et al., 2011]) and is much lower than that of chlorpromazine.

HepG2 = settings: cited from earlier work
[1] = target: T1, human serum albumin (HSA) (Homo sapiens, UniProt P02768); settings: for 10-3 K’’b / M-1, HSA binding constant from the variation in amplitude-weighted mean fluorescence lifetime: head prints 10-3 K’’b / M-1, reverse of the dissociation constant
T1 sequence (P02768 25-609): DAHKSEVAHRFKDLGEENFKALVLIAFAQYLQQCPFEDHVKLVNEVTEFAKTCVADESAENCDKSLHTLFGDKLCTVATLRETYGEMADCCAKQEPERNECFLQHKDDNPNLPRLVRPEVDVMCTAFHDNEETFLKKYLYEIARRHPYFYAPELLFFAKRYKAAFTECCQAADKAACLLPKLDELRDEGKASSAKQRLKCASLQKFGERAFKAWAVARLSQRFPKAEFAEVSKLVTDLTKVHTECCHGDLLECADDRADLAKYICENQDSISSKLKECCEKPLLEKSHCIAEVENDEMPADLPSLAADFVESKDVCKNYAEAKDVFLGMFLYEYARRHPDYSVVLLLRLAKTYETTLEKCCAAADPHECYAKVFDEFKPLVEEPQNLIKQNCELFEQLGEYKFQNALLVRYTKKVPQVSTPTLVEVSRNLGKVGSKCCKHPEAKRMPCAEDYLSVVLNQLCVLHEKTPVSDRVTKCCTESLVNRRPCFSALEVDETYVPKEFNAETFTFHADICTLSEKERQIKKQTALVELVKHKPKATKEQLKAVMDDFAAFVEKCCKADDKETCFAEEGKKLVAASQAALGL
Procedure: (§1) INH and INH derivatives stock solutions were prepared in DMSO. From the stock solutions, appropriate dilutions were prepared so that each compound was added to HSA in PBS at different concentrations ensuring that DMSO was at a fixed concentration of 5% (v/v) in the final solution. […] Three or more independent replicates were prepared and analyzed for each system.
Time-resolved fluorescence measurements were carried out by the single photon counting technique, using a nanoLED N-280 (Horiba Jobin Yvon, Villeneuve D'ascq, France) for the excitation of the protein. […] Ludox® was the scattering agent used to obtain the instrumental response function. The experimental fluorescence intensity decays were analysed with the software TRFA® version 1.4 (Minsk, Belarus). The fluorescence intensity decays, I(t), were analysed by fitting a sum of exponentials, and the decay law was then obtained according to Eq. 1: I(t)= ∑i=1nαi⁡exp(−t/τi) (1) where α i and τ i are the normalized amplitude and lifetime of component i, respectively.
The changes in quantum yield due to processes affecting the fluorescence lifetime were assessed from the amplitude-weighted mean fluorescence lifetime, τ¯ , calculated using Eq. 2: τ¯=∑i=1nαiτi (2)
When used to analyse time-resolved fluorescence data, F is replaced by τ¯ .

[2] = tested on: M. tuberculosis H37Rv ATCC27294 (wt); settings: ref Martins et al., cited from earlier work
[3] = target: warfarin binding site of HSA (Sudlow's binding site I) (Homo sapiens, UniProt P02768); assay: Competitive binding with warfarin (HSA Sudlow's binding site I)
Chain of warfarin binding site of HSA (Sudlow's binding site I) (P02768 25-609): as above
Procedure: Warfarin stock solution was also prepared with DMSO.
The interaction of INH and its derivatives with HSA was further examined regarding their putative binding site.
Using the dampening in the fluorescence intensity of warfarin it is possible to retrieve the HSA-compound dissociation constant for the binding site of warfarin (K dc) - Table 3.
From this variation it is possible to retrieve C50, the concentration of compound that displaces half of […]
This concentration is given by the fluorescence intensity corresponding to […]
the intensity of warfarin in water (buffer), which was obtained for warfarin in PBS in the absence of HSA. The C50 value was retrieved for each replicate and the average was used to calculate the Kdc of […]
(1 picture or pasted object on this page, not shown here)

[4] = target: T1, human serum albumin (HSA); settings: for 10-3 K’b / M-1, HSA binding constant from fluorescence intensity variation not accounted for by the decrease in lifetime: head prints 10-3 K’b / M-1, reverse of the dissociation constant
Procedure: as §1
Quartz Suprasil® cuvettes with 1 × 0.4 cm path length were used to gather the spectroscopic data.
The bandwidth was 4 nm in both excitation and emission paths.
Whenever the decrease in τ¯ is smaller than the decrease in the steady-state fluorescence intensity, there are multiple quenching mechanisms responsible for a decrease in fluorescence quantum yield, one affecting the amplitude-weighted mean fluorescence lifetime and the fluorescence intensity alike, and another affecting only the fluorescence intensity (a static quenching mechanism). Therefore, for each data point, the decrease in fluorescence intensity that was not due to a decrease in τ¯ was calculated. These values were used to obtain yet another dissociation constant that corresponds to the binding process affecting only the steady-state fluorescence intensity, also shown in Table 3 (K’d). […] This is a consequence of the much larger relative decrease in fluorescence intensity when compared with the decrease in fluorescence lifetime.
For a static quenching mechanism, K represents the association constant for the formation of non-fluorescent HSA-compound ground-state complex. Therefore, the reverse of K gives an estimate of the dissociation constant. By fitting a straight line to the data in Figure 8 forcing a unitary intercept, i.e., assuming a Stern-Volmer-like behaviour, a reasonable correlation coefficient was obtained in all cases.

[5] = octanol-water, cited from earlier work
[6] = Octanol-water partition coefficient, shake-flask method; assay type: physicochemical; settings: pH 7.5, room temperature, preliminary assessment
Procedure: Lipophilicity was evaluated as log Po/w, the octanol-water partition coefficient obtained by the shake-flask method ([Ràfols et al., 2012]; [Martins et al., 2014]), and as log Kp(NaDS/w) the partition coefficient towards sodium dodecyl sulfate (NaDS) anionic micelles obtained by differential spectrophotometry for INH, INH-C10, N33 and N34 in previous works ([Ràfols et al., 2012]; [Martins et al., 2014]; [Santos et al., 2020]). […] For both compounds, samples were dissolved in water-saturated octanol at pH 7.5 (KH2PO4/NaOH) to guarantee negligible ionization. The partition to octanol-saturated aqueous buffer was evaluated, at room temperature, using a volume ratio, ro/w, of 5/30 and 10/30 for N33red and 2.5/40, 5/40 for N34red, after sonication of the solutions and partition on a mechanical tumbler. Equilibrium concentrations were determined by UV-Vis spectrophotometry between 200 and 500 nm after phase separation.

[7] = tested on: M. tuberculosis H37Rv ATCC27294 (wt); assay: microbe, parasite or virus in culture; assay type: cell-based; parameters: MIC (wt): unit not given here; settings: for MIC: Mycobacterium tuberculosis, wt Mtb H37Rv, tested from 0.03125 to 128 µM; for MIC (wt): Table S1; for activity against the wild-type strain: in words
[8] = assay type: physicochemical; settings: for stability in aqueous solution: pH 7.4; for fluctuation of the absorption spectra in the UV region: over 3 days, PBS pH 7.4 with 5 % DMSO, N33red at 240 nm, N34red at 269 nm
Procedure: INH-C10, N33 and N34 were obtained as fully described in reference ([Martins et al., 2014]). N33red and N34red were obtained by reduction of the parent Schiff base. Sodium cyanoborohydride (2 equiv.) was added portion wise to a solution of N33 or N34 in hot methanol. The reaction mixture was acidified with methanolic HCl 5M until pH 3; at that point the solution color changed to dark yellow. The reaction was kept under reflux and monitored by TLC until the starting material was consumed. The solvent was then evaporated under reduced pressure, giving an orange-yellow oil. This residue was dissolved in water and basified to pH > 7 by addition of a few drops of NaOH 6 M, to break up the possible cyanoborate adducts. The solution was then washed with brine and extracted several times with dichloromethane, the combined organic extracts were dried with MgSO4 and the solvent evaporated under reduced pressure affording crude yellowish solids. Pure N33red and N34red were obtained after column chromatography with Et2O/MeOH 96.5:3.5 and by recrystallization from CH2Cl2/petroleum ether 2:3, respectively (adapted from ([Borch et al., 1971])). Both N33red and N34red are very stable in aqueous solution (PBS with 5% DMSO) for at least 48 h (Supplementary Figure S5).
Figure S5 – Electronic absorption spectra of N33red and N34red in PBS buffer pH 7.4 with 5 % DMSO
were monitored over 3 days. The fluctuation of the spectra in the UV region of N33red at 240 nm was
less than 1.2% while for N34red at 269 nm was less than 2.5%. The time dependence of the absorbance
uncertainty, thus confirming the stability of both compounds for at least 3 days.

[9] = target: T1, human serum albumin (HSA); parameters: purchased Merck (Sigma-Aldrich) A9511; method as in Ascenzi et al., 2011; settings: ref Ascenzi et al., 2011; read-out: K d for HSA previously reported; cited from earlier work
[10] = head prints 10-3 Kbc / M-1, equimolar HSA and warfarin, reverse of the dissociation constant
[11] = HepG2, 72 h incubation, ref Lupien et al., 2018

| Compound | IC50 (HepG2 cells) | Kd [1] | MIC (wt) ([2]; wt Mtb H37Rv, 2014) | Kd [3] | 10-3 Kbc / M-1, binding constant for the warfarin binding site [3, 10] | Kd [4] | 10-3 K’b / M-1, HSA binding constant from fluorescence intensity variation not accounted for by the decrease in lifetime [4] | other results |
| --- | --- | --- | --- | --- | --- | --- | --- | --- |
| CN(C)CCCN1c2ccccc2Sc2ccc(Cl)cc21 [Chlorpromazine, reference compound] | 13.9 µM |  |  |  |  |  |  | IC50 (HepG2; same cell line (HepG2), 24 h incubation, ref Wang et al., 2002): 34.7 µM |
| COC(=O)c1ccc(/C=N/NC(=O)c2ccncc2)cc1 [Compound N33, methyl (E)-4-((2-isonicotinoylhydrazineylidene)methyl)benzoate] | > 25 µM | 80 ± 60 µM | 1.06 ^a µM | 54 ± 4 µM | 18.5 ± 1.3 10^3 M-1 | 160 µM and 200 µM and 120 µM | 5.00 ± 2.50 10^3 M-1 | 10-3 K’’b / M-1, HSA binding constant from the variation in amplitude-weighted mean fluorescence lifetime [1]: 12.5 ± 9.4 10^3 M-1; log P o/w ± SD ([5]; ref Martins et al., 2014): 1.32 ± 0.06 ^c |
| COC(=O)c1ccc(CNNC(=O)c2ccncc2)cc1 [Compound N33red, methyl 4-((2-isonicotinoylhydrazinyl)methyl)benzoate] | > 200 µM |  |  | 900 ± 300 µM |  | 600 µM (2×) and 560 µM | 1.77 ± 0.65 10^3 M-1 | logP [6]: 1.33 ± 0.04; Kd ([3]; 10-3 Kbc / M-1, binding constant for the warfarin binding site, head prints 10-3 Kbc / M-1, equimolar HSA and warfarin, reverse of the dissociation constant): 746 µM; MIC [7]: 2 µM (≈ 0.571 µg/mL); MIC (wt) [7]: 0.6; activity against the wild-type strain [7]: active; stability in aqueous solution ([8]; 48 h): at least 48 h; stability in aqueous solution ([8]; 3 days): at least 3 days; fluctuation of the absorption spectra in the UV region [8]: less than 1.2% |
| O=C(N/N=C/c1ccc(Oc2ccccc2)cc1)c1ccncc1 [Compound N34, (E)-N'-(4-phenoxybenzylidene)isonicotinohydrazide] | > 200 µM | 521 µM | 0.95 ^a µM | 128 ± 5 µM | 7.8 ± 0.3 10^3 M-1 | 130 µM and 110 µM and 70 µM |  |  |
| O=C(NNCc1ccc(Oc2ccccc2)cc1)c1ccncc1 [Compound N34red, N'-(4-phenoxybenzyl)isonicotinohydrazide] | 48.5 µM | 730 µM |  | 340 ± 20 µM | 2.99 ± 0.17 10^3 M-1 | 150 µM and 140 µM and 90 µM |  | logP [6]: 2.6 ± 0.2; MIC [7]: 1 µM (≈ 0.319 µg/mL); MIC (wt) [7]: 0.3; activity against the wild-type strain [7]: active; stability in aqueous solution ([8]; 48 h): at least 48 h; stability in aqueous solution ([8]; 3 days): at least 3 days; fluctuation of the absorption spectra in the UV region [8]: less than 2.5% |
| NNC(=O)c1ccncc1 [INH, isonicotinoylhydrazide, reference compound] | > 200 µM |  | 0.29 ^a µM | 4550 ± 50 µM | 0.22 ± 0.01 10^3 M-1 | 2.72 mM (2×) and 1.65 mM | 0.37 ± 0.01 10^3 M-1 | Kd [9]: 390 µM; effect on HepG2 cell viability (HepG2 cells; up to 200 µM, 72 h): did not significantly affect HepG2 cell viability; MIC (wt) ([2]; Table S1, 2014 (per Table 2)): 0.04 g/mL (≈ 292 mM); Kd ([4]; K d for HSA, fluorescence intensity corrected for inner filter effects, steady-state fluorescence, text and Figure S7): ~1000 µM; log P o/w ± SD ([5]; ref Ràfols et al., 2012): −0.85 ± 0.01 ^b |
| CCCCCCCCCC(=O)NNC(=O)c1ccncc1 [INH-C10, N′-decanoylisonicotinoylhydrazide] | > 25 µM | 120 ± 3 µM | 0.38 ^a µM | 400 ± 200 µM | 2.43 ± 0.86 10^3 M-1 | 46 µM and 50 µM and 70 µM | 18.6 ± 5.58 10^3 M-1 | 10-3 K’’b / M-1, HSA binding constant from the variation in amplitude-weighted mean fluorescence lifetime [1]: 8.33 ± 0.21 10^3 M-1; log P o/w ± SD ([5]; ref Ràfols et al., 2012): 3.5 ± 0.2 ^b |
| CO[C@H]1/C=C/O[C@@]2(C)Oc3c(C)c(O)c4c(O)c(c(/C=N/N5CCN(C)CC5)c(O)c4c3C2=O)NC(=O)/C(C)=C\C=C\[C@H](C)[C@H](O)[C@@H](C)[C@@H](O)[C@@H](C)[C@H](OC(C)=O)[C@@H]1C [Rifampin] |  |  |  |  |  |  |  | IC50 (HepG2; ref Vahdati-Mashhadian et al., 2013): 25.5 µM |
| COc1nc2ccc(Br)cc2cc1[C@@H](c1ccccc1)[C@@](O)(CCN(C)C)c1cccc2ccccc12 [bedaquiline] |  |  |  |  |  |  |  | IC50 (HepG2; [11]): 17.4 µM |
| C[C@]1(COc2ccc(N3CCC(Oc4ccc(OC(F)(F)F)cc4)CC3)cc2)Cn2cc([N+](=O)[O-])nc2O1 [delamanid] |  |  |  |  |  |  |  | IC50 (HepG2; [11]): 98.9 µM |
